In patent publication US11248234B2, “Herbicide-resistant hydroxyphenylpyruvate dioxygenases” (BASF SE, priority 2015, dated 2022):

Experiments:
[1] = test system: Arabidopsis overexpression line SoHPPD Q317H, A318G, E345Q (short); test: Germination assay in 48-well plates (tolerance factor); format: in vivo, Arabidopsis thaliana; conditions: plant growth IC50 transgenic / wildtype; mean of 5 T2 events; non-transgenic set to 1
Procedure: (§1) Tolerance to HPPD-inhibiting herbicides can also be assessed in Arabidopsis. In this case transgenic Arabidopsis thaliana plants are assayed for improved tolerance to HPPD-inhibiting herbicides in 48-well plates (germination assay). Seeds are surface sterilized by stirring for 5 min in ethanol+water (70+30 by volume), rinsing one time with ethanol+water (70+30 by volume) and two times with a sterile, deionized water. The seeds are resuspended in 0.1% agar dissolved in water (w/v). Four to five seeds per well are plated on solid nutrient medium consisting of half-strength Murashige Skoog nutrient solution, pH 5.8 (Murashige and Skoog (1962) Physiologia Plantarum 15: 473-497). Compounds are dissolved in dimethylsulfoxid (DMSO) and added to the medium prior solidification (final DMSO concentration 0.1%). Multi well plates are incubated in a growth chamber at 22° C., 75% relative humidity and 110 μmol Phot*m−2*s−1 with 14:10 h light:dark photoperiod. Growth inhibition is evaluated seven to ten days after seeding in comparison to wild type plants. Tolerance factor is calculated by dividing the plant growth IC50 value of transgenic plants containing a HPPD sequence by that of wildtype plants.

[2] = test system: Arabidopsis overexpression line SoHPPD (SEQ ID NO: 4); test: as above; format: in vivo, Arabidopsis thaliana; conditions: plant growth IC50 transgenic / wildtype; mean of 5 T2 events; non-transgenic set to 1
Procedure: as §1

[3] = test system: transgenic Arabidopsis plants (T2) SoHPPD Q317H (short); test: Greenhouse spray test, injury evaluation; format: in vivo, Arabidopsis thaliana; conditions: for Injury: 14 DAT
Procedure: (§2) Non-transgenic control plants were treated in parallel and pictures taken 14 days after treatment.
(§3) For post emergence treatment, the test plants are first grown to a height of 3 to 15 cm, depending on the plant habit, and only then treated with the herbicides. For this purpose, the test plants are either sown directly and grown in the same containers, or they are first grown separately and transplanted into the test containers a few days prior to treatment.
(§4) Additionally, T1 and T2 transgenic Arabidopsis plants can be tested for improved tolerance to HPPD-inhibiting herbicides in greenhouse studies. Herbicide injury scoring is done 2-3 weeks after treatment and is rated on a scale of 0 to 100%, 0% being no injury and 100% being complete death.
(§5) Transgenic T2 Arabidopsis plants were sprayed with a range of doses from 1.56-25 g/ha of different HPPD-inhibiting herbicides and injury evaluations were taken two weeks after treatment (FIG. 4). As depicted in Table 8, control plants were severely injured by all doses of herbicides applied, with at least 58% of leaf material being damaged at the lowest application rate and 100% leaf damage at the second application rate.

[4] = test system: WT (non-transgenic control) Arabidopsis plants; test: Greenhouse spray test, injury evaluation; format: in vivo, Arabidopsis thaliana; conditions: 14 DAT
Procedure: as §2, §3, §4, §5

[5] = test system: transgenic Arabidopsis plants (T2) SoHPPD F363I (short); test: Greenhouse spray test, injury evaluation; format: in vivo, Arabidopsis thaliana; conditions: 14 DAT
Procedure: as §2, §3, §4, §5

[6] = test system: transgenic T1 Arabidopsis plants, Scenedesmus HPPD alanine 318 exchanged by glycine and leucine 350 substituted with methionine; test: T1 spray application; format: in vivo, Arabidopsis thaliana; conditions: FIG. 3; pictures 8 days after treatment
Procedure: (§6) Wildtype plants were sprayed in parallel at each application rate (two lower pots below dashed line) whereas T1 plants are represented by the five upper pots. Pictures were taken 8 days after treatment.
(§7) Transgenic T1 Arabidopsis plants were sprayed with the indicated amount of HPPD inhibiting herbicide. The T1 spray application is a fast method to evaluate the potential of transgenic traits even though a segregating population and only one event of respective traits is tested.

[7] = test system: transgenic T1 Arabidopsis plants, Scenedesmus HPPD phenylalanine 363 exchanged by isoleucine; test: T1 spray application; format: in vivo, Arabidopsis thaliana; conditions: FIG. 3; highest application rate
Procedure: as §6, §7

[8] = test system: Scenedesmus HPPD with glutamine 317 exchanged to methionine, alanine 318 substituted by glycine and glutamate 345 mutated to glutamin; test: In vitro HPPD activity assay; format: biochemical, Scenedesmus obliquus; conditions: in words, from Table 6 data
Procedure: HPPD produces homogentisic acid and CO2 from 4-hydroxyphenylpyruvate (4-HPP) and O2. The activity assay for HPPD is based on the analysis of homogentisic acid by reversed phase HPLC.
The assay mixture can contain 150 mM potassium phosphate buffer pH 7.0, 50 mM L-ascorbic acid, 100 μM Catalase (Sigma-Aldrich), 1 μM FeSO4 and 0.2 units of purified mutated HPPD enzyme in a total volume of 505 μl. 1 unit is defined as the amount of enzyme that is required to produce 1 nmol of HGA per minute at 20° C.
After a preincubation of 30 min the reaction is started by adding 4-HPP to a final concentration of 0.05 mM. The reaction is allowed to proceed for 45 min at room temperature. The reaction is stopped by the addition of 50 μl of 4.5 M phosphoric acid. The sample is filtered using a […] pore size PVDF filtration device.
5 μl of the cleared sample is analyzed on an UPLC HSS T3 column (particle size 1.8 μm, dimensions 2.1×50 mm; Waters) by isocratic elution using 90% 20 mM NaH2PO4 pH 2.2, 10% methanol (v/v).
HGA is detected electrochemically at 750 mV (mode: DC; polarity: positive) and quantified by integrating peak areas (Empower software; Waters).
Inhibitors are dissolved in DMSO (dimethylsulfoxide) to a concentration of 0.5 mM. From this stock solution serial five-fold dilutions are prepared in DMSO, which are used in the assay. […] IC50 values are calculated using non-linear regression. […]

Compound: Cc1c(C(=O)c2cnn(C)c2O)ccc(S(C)(=O)=O)c1C1=NOCC1 [Inhibitor 1, [3-(4,5-dihydroisoxazol-3-yl)-2-methyl-4-methylsulfonyl-phenyl]-(5-hydroxy-1-methyl-pyrazol-4-yl)methanone]
- Tolerance factor [1]: 50
- Tolerance factor [2]: 82
- Injury ([3]; Event B, 1.56 g ai/ha): 0%
- Injury ([3]; Event B, 6.25 g ai/ha): 0%
- Injury ([3]; Event B, 25 g ai/ha): 18%
- Injury ([3]; Event C, 1.56 g ai/ha): 0%
- Injury ([3]; Event C, 6.25 g ai/ha): 0%
- Injury ([3]; Event C, 25 g ai/ha): 10%
- Injury ([4]; 1.56 g ai/ha): 75%
- Injury ([4]; 6.25 g ai/ha): 100%
- Injury ([4]; 25 g ai/ha): 100%
- Injury ([5]; Event B, 1.56 g ai/ha): 0%
- Injury ([5]; Event B, 6.25 g ai/ha): 0%
- Injury ([5]; Event B, 25 g ai/ha): 0%
- Injury ([5]; Event C, 1.56 g ai/ha): 0%
- Injury ([5]; Event C, 6.25 g ai/ha): 0%
- Injury ([5]; Event C, 25 g ai/ha): 0%
- tolerance of T1 plants to spray [6]: good tolerance
- tolerance of T1 plants to spray [7]: highly tolerant

Compound: CS(=O)(=O)c1ccc(C(=O)C2C(=O)CCCC2=O)c([N+](=O)[O-])c1 [Inhibitor 2, 2-(4-methylsulfonyl-2-nitro-benzoyl)cyclohexane-1,3-dione]
- average damage (leaf injury) ([3]; 25 g ai/ha, average of events): 34%
- Injury ([3]; Event B, 1.56 g ai/ha): 0%
- Injury ([3]; Event B, 6.25 g ai/ha): 0%
- Injury ([3]; Event B, 25 g ai/ha): 33%
- Injury ([3]; Event C, 1.56 g ai/ha): 0%
- Injury ([3]; Event C, 6.25 g ai/ha): 3%
- Injury ([3]; Event C, 25 g ai/ha): 35%
- Injury ([4]; 1.56 g ai/ha): 58%
- Injury ([4]; 6.25 g ai/ha): 100%
- Injury ([4]; 25 g ai/ha): 100%
- Injury ([5]; Event B, 1.56 g ai/ha): 0%
- Injury ([5]; Event B, 6.25 g ai/ha): 0%
- Injury ([5]; Event B, 25 g ai/ha): 3%
- Injury ([5]; Event C, 1.56 g ai/ha): 5%
- Injury ([5]; Event C, 6.25 g ai/ha): 0%
- Injury ([5]; Event C, 25 g ai/ha): 0%

Compound: CCS(=O)(=O)c1cc(C(F)(F)F)ccc1C1=C(O)c2ncccc2C(C)(C)S1(=O)=O [Inhibitor 4, 7-[2-ethylsulfonyl-4-(trifluoromethyl)phenyl]-5,5-dimethyl-6,6-dioxo-thiopyrano[4,3-b]pyridin-8-ol]
- resistance of the enzyme to the inhibitor [8]: conferred resistance
